“And” between values parts separate entries of the source, which are not always exact repeats. Equal values may be shown once.
Experiments:
[1] = test system: participants with episodic migraine; assay: Study A: phase 3 randomized double-blind placebo-controlled 12-week trial, eDiary efficacy (monthly migraine days, headache days, acute medication use days, responder rates); format: in vivo, human; conditions: for Change from baseline in mean monthly acute medication use days, LS mean change (SE) / Change from baseline in mean monthly headache days, LS mean change (SE) / Change from baseline in mean monthly migraine days, LS mean change (SE) / Mean monthly acute medication use days, LSMD vs. placebo (95% CI) / Mean monthly headache days, LSMD vs. placebo (95% CI) / Mean monthly migraine days, LSMD vs. placebo (95% CI): across 12-week treatment period; for Change from baseline in mean monthly acute medication use days, LS mean change (SE) / Change from baseline in mean monthly headache days, LS mean change (SE) / Change from baseline in mean monthly migraine days, LS mean change (SE) / Mean monthly acute medication use days, LSMD vs. placebo (95% CI) / Mean monthly headache days, LSMD vs. placebo (95% CI) / Mean monthly migraine days, LSMD vs. placebo (95% CI) / ≥50% reduction in 3-month average of monthly migraine days, odds ratio vs. placebo (95% CI) / ≥50% reduction in 3-month average of monthly migraine days, responder n (%): mITT; for decrease in mean monthly headache days / decrease in monthly migraine days: 12 weeks; for decrease in mean monthly headache days / decrease in monthly migraine days / decrease in mean monthly acute medication use days: given as decrease; for decrease in mean monthly acute medication use days: across 12 weeks; for proportion of participants who reported a migraine day: first full day after study drug administration; for LS mean change from baseline in mean headache days / LS mean reduction from baseline in mean cumulative headache hours: first treatment period; for LS mean change from baseline in acute medication use days / LS mean change from baseline in moderate/severe headache days: first treatment period (weeks 1-4); for Mean change from baseline in weekly migraine days: first week of treatment; for odds ratio vs placebo for reporting a migraine: post dose day 1
Method: Study A: A phase 3, multicenter, randomized, double-blind, placebo-controlled, parallel-group study was conducted to evaluate the efficacy, safety, and tolerability of oral atogepant for the prevention of migraine in participants with episodic migraine (EM).
This study comprised a 4-week screening and baseline period, a 12-week double-blind treatment period, and a 4-week follow-up period. The total study duration was 20 weeks.
Adults 18 to 80 years of age with 4 to 14 migraine days per month in the 3 months prior to visit 1, and 4 to 14 migraine days during the 28-day baseline period per electronic Diary, were allowed to enroll. Inclusion criteria included at least a 1-year history of migraine with or without aura consistent with a diagnosis, diagnosed as specified in the International Classification of Headache Disorders, 3rd edition, version (ICHD-3), and the age of the participant at the time of migraine onset was <50 years. Exclusion criteria included a history of migraine accompanied by diplopia or decreased level of consciousness or retinal migraine; a current diagnosis of chronic migraine, new persistent daily headache, trigeminal autonomic cephalgia (e.g., cluster headache), or painful cranial neuropathy as defined by ICHD-3, or if they averaged 15 or more migraine days per month across the 3 months prior to Visit 1 or during the 28-day baseline period; a history of an inadequate response to >4 medications (2 of which have different mechanisms of action) prescribed for the treatment of migraine; and participants with clinically significant hematologic, endocrine, cardiovascular, pulmonary, renal, hepatic, gastrointestinal, or neurologic disease. Use of opioids or barbiturate on more than 2 days per month, triptans or ergots on 10 or more days per month, or simple analgesics (e.g., aspirin, non-steroidal anti-inflammatory drugs, acetaminophen) on 15 or more days per month in the 3 months prior to Visit 1 or during the 28-day baseline period were also excluded. Use of barbiturates was also excluded 30 days prior to screening and throughout the duration of the trial.
Randomization was stratified based on prior exposure (yes/no) to a migraine prevention medication with proven efficacy, such as antiepileptics, tricyclic antidepressants, beta-blockers, calcium channel blocker, angiotensin receptor blocker or converting enzyme inhibitor, or serotonin-norepinephrine reuptake inhibitors. Approximately 70% of randomized participants took at least one prior migraine prevention medication with proven efficacy. Participants were not on concurrent medication during the study.
A total of 910 patients were randomized 1:1:1:1 to one of the four treatment groups (10 mg QD, 30 mg QD, 60 mg QD, or placebo). Efficacy analyses were based on the Modified Intent-to-Treat Population (mITT) of 873 patients.
All participants were instructed to take trial treatment orally at approximately the same time once daily for 12 weeks. To maintain the blinding, all participants took 3 tablets of trial treatment provided in identical blister cards: placebo (placebo 10 mg/placebo 30 mg/placebo 60 mg), atogepant 10 mg (atogepant 10 mg/placebo 30 mg/placebo 60 mg), atogepant 30 mg (placebo 10 mg, atogepant 30 mg, placebo 60 mg), and atogepant 60 mg (placebo 10 mg/placebo 30 mg/atogepant 60 mg). Participants, site personnel, and trial sponsor personnel were blinded to the treatment assignment. Tablet formulations for CGRP compounds are described, for example, in U.S. Pat. No. 10,117,936.
Participants were allowed to take acute treatments for migraine which included triptans, ergot derivatives, opioids, acetaminophen, non-steroidal anti-inflammatory drugs, and antiemetic agents. Participants were not allowed to take any preventive treatments for migraine 30 days prior to visit 1 and throughout the trial.
Efficacy assessments were recorded by the participant in an electronic diary at home or via eTablet at the trial site during clinic visits. […]

[2] = Atogepant oral pharmacokinetics; format: in vivo; conditions: administered orally
[3] = range across atogepant 10, 30, 60 mg groups

## C[C@@H]1[C@H](c2c(F)ccc(F)c2F)C[C@H](NC(=O)c2cnc3c(c2)C[C@@]2(C3)C(=O)Nc3ncccc32)C(=O)N1CC(F)(F)F [atogepant]
[1]; 10 mg QD
  100% reduction in 3-month average of monthly migraine days, responder n (%): 17 (7.9) %
  ≥25% reduction in 3-month average of monthly migraine days, responder n (%): 73.4%
  ≥75 reduction in 3-month average of monthly migraine days, responder n (%): 30.4%
  Change from baseline in mean monthly acute medication use days, LS mean change (SE): -3.66 days
  Change from baseline in mean monthly headache days, LS mean change (SE): -3.94 days
  Change from baseline in mean monthly migraine days, LS mean change (SE): -3.69 days
  Mean monthly acute medication use days, LSMD vs. placebo (95% CI): -1.31 days
  Mean monthly headache days, LSMD vs. placebo (95% CI): -1.42 days
  Mean monthly migraine days, LSMD vs. placebo (95% CI): -1.21 days
  ≥50% reduction in 3-month average of monthly migraine days, odds ratio vs. placebo (95% CI): 3.06
  ≥50% reduction in 3-month average of monthly migraine days, responder n (%): 55.6%
[1]; 10 mg QD, listed as Atogepant
  ≥50% reduction in 3-month average of monthly migraine days, responder n (%): (55.6) %
[1]; 10 mg
  decrease in mean monthly headache days: 3.94 days
  decrease in monthly migraine days: 3.69 days
  decrease in mean monthly acute medication use days: 3.66 days
  proportion of participants who reported a migraine day: 14.1%
  LS mean change from baseline in mean headache days: −3.2
  LS mean reduction from baseline in mean cumulative headache hours: -23.3 h
  LS mean change from baseline in acute medication use days: −3.3
  LS mean change from baseline in moderate/severe headache days: −3.0
  Mean change from baseline in weekly migraine days: −0.77
  odds ratio vs placebo for reporting a migraine: 0.49
[1]; 10 mg, weeks 1-4
  mean change from baseline in mean monthly migraine days: −3.1
[1]; 10 mg, weeks 5-8
  mean change from baseline in mean monthly migraine days: −3.7
[1]; 10 mg, weeks 9-12
  mean change from baseline in mean monthly migraine days: −4.2
[1]; 30 mg QD
  100% reduction in 3-month average of monthly migraine days, responder n (%): 11 (4.0) %
  ≥25% reduction in 3-month average of monthly migraine days, responder n (%): 172 (77.1) %
  ≥75 reduction in 3-month average of monthly migraine days, responder n (%): 66 (29.6) %
  Change from baseline in mean monthly acute medication use days, LS mean change (SE): -3.68 days
  Change from baseline in mean monthly headache days, LS mean change (SE): -4.04 days
  Change from baseline in mean monthly migraine days, LS mean change (SE): -3.86 days
  Mean monthly acute medication use days, LSMD vs. placebo (95% CI): -1.33 days
  Mean monthly headache days, LSMD vs. placebo (95% CI): -1.53 days
  Mean monthly migraine days, LSMD vs. placebo (95% CI): -1.38 days
  ≥50% reduction in 3-month average of monthly migraine days, odds ratio vs. placebo (95% CI): 3.53
  ≥50% reduction in 3-month average of monthly migraine days, responder n (%): 58.7%
[1]; 30 mg QD, listed as Atogepant
  ≥50% reduction in 3-month average of monthly migraine days, responder n (%): (58.7) %
[1]; 30 mg
  decrease in mean monthly headache days: 4.04 days
  decrease in monthly migraine days: 3.86 days
  decrease in mean monthly acute medication use days: 3.68 days
  proportion of participants who reported a migraine day: 10.8%
  LS mean change from baseline in mean headache days: −3.4
  LS mean reduction from baseline in mean cumulative headache hours: -23.6 h
  LS mean change from baseline in acute medication use days: −3.4
  LS mean change from baseline in moderate/severe headache days: −3.2
  Mean change from baseline in weekly migraine days: −0.94
  odds ratio vs placebo for reporting a migraine: 0.33
[1]; 30 mg, weeks 1-4
  mean change from baseline in mean monthly migraine days: −3.4
[1]; 30 mg, weeks 5-8
  mean change from baseline in mean monthly migraine days: −3.9
[1]; 30 mg, weeks 9-12
  mean change from baseline in mean monthly migraine days: −4.3
[1]; 60 mg QD
  100% reduction in 3-month average of monthly migraine days, responder n (%): 17 (7.7) %
  ≥25% reduction in 3-month average of monthly migraine days, responder n (%): 180 (81.1) %
  ≥75 reduction in 3-month average of monthly migraine days, responder n (%): 84 (37.8) %
  Change from baseline in mean monthly acute medication use days, LS mean change (SE): -3.85 days
  Change from baseline in mean monthly headache days, LS mean change (SE): -4.23 days
  Change from baseline in mean monthly migraine days, LS mean change (SE): -4.20 days
  Mean monthly acute medication use days, LSMD vs. placebo (95% CI): -1.50 days
  Mean monthly headache days, LSMD vs. placebo (95% CI): -1.71 days
  Mean monthly migraine days, LSMD vs. placebo (95% CI): -1.72 days
  ≥50% reduction in 3-month average of monthly migraine days, odds ratio vs. placebo (95% CI): 3.82
  ≥50% reduction in 3-month average of monthly migraine days, responder n (%): 60.8%
[1]; 60 mg QD, listed as Atogepant
  ≥50% reduction in 3-month average of monthly migraine days, responder n (%): (60.8) %
[1]; 60 mg
  decrease in mean monthly headache days: 4.23 days
  decrease in monthly migraine days: 4.20 days
  decrease in mean monthly acute medication use days: 3.85 days
  proportion of participants who reported a migraine day: 12.3%
  LS mean change from baseline in mean headache days: −3.8
  LS mean reduction from baseline in mean cumulative headache hours: -25.1 h
  LS mean change from baseline in acute medication use days: −3.7
  LS mean change from baseline in moderate/severe headache days: −3.8
  Mean change from baseline in weekly migraine days: −1.03
  odds ratio vs placebo for reporting a migraine: 0.39
[1]; 60 mg, weeks 1-4
  mean change from baseline in mean monthly migraine days: −3.9
[1]; 60 mg, weeks 5-8
  mean change from baseline in mean monthly migraine days: −4.2
[1]; 60 mg, weeks 9-12
  mean change from baseline in mean monthly migraine days: −4.4
[1]; atogepant treated participants (all doses)
  times more likely than placebo to achieve ≥50% reduction in the 12-week average of MMDs: ≥ 3 times
[1]; [3]
  participants with 100% reduction in MMDs across 12 weeks: 5%-8%
  participants with ≥25% reduction in MMDs across 12 weeks: 73%-81%
  participants with ≥50% reduction in mean MMDs across 12 weeks: 56%-61% and 56-61%
  participants with ≥75% reduction in MMDs across 12 weeks: 30%-38%
[2]
  time to maximum plasma concentrations: ≤ 2 h
[2]; plasma, po
  half-life: ~660 min
